In brackets after ≈: the same amount, converted by molar mass. Several values for one entry are separate records, joined by “and”; a condition that tells them apart may be missing. Identical values can stand only once. Like-named read-outs stand apart in the source and are kept apart here.
What was measured:
[1] = test system: HeLa (cervical carcinoma) cell line; experiment: Sulforhodamine B growth inhibition assay, HeLa; format: cell-based, human
Experimental: (§1) J. regia leaf extracts (30 mg/mL) and solvents were studied regarding their inhibitory growth activity of the HeLa (cervical carcinoma) cell line and the non-tumor PLP2 cells (porcine liver primary cells) by using a sulforhodamine B assay. The extracts were diluted to obtain a stock solution of 10 mg/mL, and the concentration of the working solutions ranged from 500 to 7.8 µg/mL, while the concentration of the solvents ranged from 4% to 0.0156%. Ellipticine was used as positive control. The experimental protocol related to the cell cultures was previously described by Barros et al. and Abreu et al..

[2] = test system: non-tumor PLP2 cells (porcine liver primary cells); experiment: Sulforhodamine B growth inhibition assay, PLP2 (hepatotoxicity)
Experimental: as §1

[3] = as above; settings: pig, PLP2 cells (porcine liver primary cells, non-tumor)
Experimental: as §1

[4] = solvent without extract, range 4% to 0.0156%, mean ± SD

In the case of `OCC(O)CO` [Glycerol, glycerol], the “GI50 HeLa, Solvent” value [1, 4] is reported as >4 %, v/v and the “GI50 PLP2, Solvent” value ([2]; pig) is reported as >4 %, v/v.
With `CCO` [Ethanol, ethanol] the “GI50 HeLa, Solvent” value [1, 4] was >4 %, v/v and the “GI50 PLP2, Solvent” value [2] was >4 %, v/v.
`Cc1c2ccncc2c(C)c2c1[nH]c1ccccc12` [Ellipticine, reference compound] showed a GI50 ([1]; Homo sapiens, HeLa, positive control, mean ± SD) of 1 ± 0.1 µg/mL (≈ 4.06 µM) and a GI50 [3] of 2.3 µg/mL (≈ 9.34 µM).
For `CCCCC(O)CO` (stereo not shown) [1,2-hexanediol], the “GI50 HeLa, Solvent” value [1, 4] was 0.36 ± 0.02 %, v/v and 0.36 ± 0.02c %, v/v and the “GI50 PLP2, Solvent” value [2, 4] was 0.285 ± 0.005 %, v/v and 0.285 ± 0.005c %, v/v.
With `CC(O)CO` (stereo not shown) [1,2-propanediol] the “GI50 HeLa, Solvent” value [1, 4] was >4 %, v/v and the “GI50 PLP2, Solvent” value [2, 4] was >4 %, v/v.
With `OCCCCCO` [1,5-pentanediol] the “GI50 HeLa, Solvent” value [1, 4] was 0.49 ± 0.02b %, v/v and the “GI50 PLP2, Solvent” value ([2]; pig) was 0.59 ± 0.02b %, v/v.
With `CCCC(O)CO` (stereo not shown) [1,2-pentanediol] the “GI50 HeLa, Solvent” value [1, 4] was 0.63 ± 0.04a %, v/v and the “GI50 PLP2, Solvent” value [2, 4] was 0.89 ± 0.04a %, v/v.
For `OCCO` [1,2-ethanediol], the “GI50 HeLa, Solvent” value [1] was >4 %, v/v and the “GI50 PLP2, Solvent” value [2] was >4 %, v/v.
With `O` [Water, water] the “GI50 HeLa, Solvent” value [1, 4] was >4 %, v/v and the “GI50 PLP2, Solvent” value [2] was >4 %, v/v.
For `OCCCO` [1,3-propanediol], the “GI50 HeLa, Solvent” value [1, 4] was >4 %, v/v and the “GI50 PLP2, Solvent” value [2, 4] was >4 %, v/v.
In the case of `CC(O)CCO` (stereo not shown) [1,3-butanediol], the “GI50 HeLa, Solvent” value [1, 4] is reported as >4 %, v/v and the “GI50 PLP2, Solvent” value [2, 4] is reported as >4 %, v/v.

From paper PMC7321402, “Insights on the Extraction Performance of Alkanediols and Glycerol: Using Juglans regia L. Leaves as a Source of Bioactive Compounds” (Molecules, 2020)
